Experimental findings from ChEMBL document CHEMBL4229330, “Synthesis and evaluation of C2 functionalized analogs of the α-tubulin-binding natural product pironetin” (Bioorg Med Chem Lett, 2018) are described below.

What all share (format): cell-based
The subject of assay [1] is A2780. The experiment in a line: Binding affinity to alpha tubulin in human A2780 cells assessed as disruption of tubulin polymerization by measuring cell proliferation at higher concentration after 48 hrs by CellTiter non-radioactive assay relative to control.
The test system of assay [2] is A2780. The experiment in a line: Binding affinity to alpha tubulin in human A2780 cells assessed as disruption of tubulin polymerization by measuring reduction in cell proliferation after 48 hrs by CellTiter non-radioactive assay.
The species entered for the next assay is Homo sapiens. The experiment in a line: Binding affinity to alpha tubulin in human OVCAR5 cells assessed as disruption of tubulin polymerization by measuring reduction in cell proliferation after 48 hrs by CellTiter non-radioactive assay.

Usually GI50 stands for the concentration that inhibits growth by half. On to `C/C=C/C[C@H](C)[C@@H](OC)[C@@H](C)[C@H](O)C[C@H]1OC(=O)C(Br)=C[C@H]1CC`, for which the Activity in the assay with A2780 [1] was under 10%. Besides, the GI50 with A2780 [2] is 0.901 µM; in the assay listed under Homo sapiens it was 44.9 to 26200 nM.

Take `C/C=C/C[C@H](C)[C@@H](OC)[C@@H](C)[C@H](O)C[C@H]1OC(=O)C(c2ccccc2)=C[C@H]1CC`: the Activity in the assay with A2780 [1] is 10 to 20%. For the same molecule, the GI50 in the assay with A2780 [2] is over 50 µM; in the assay filed under Homo sapiens it was over 50000 nM.

For the molecule `C/C=C/C[C@H](C)[C@@H](OC)[C@@H](C)[C@H](O)C[C@H]1OC(=O)C(Cl)=C[C@H]1CC`, in the assay on A2780 [1], the Activity lay in the range of 10 to 20%. Besides, the GI50 in the assay with A2780 [2] came to 4.48 µM; in the assay listed under Homo sapiens, 1080 nM.

Turning to `C/C=C/C[C@H](C)[C@@H](OC)[C@@H](C)[C@H](O)C[C@H]1OC(=O)C(C)=C[C@H]1CC`, the Activity with A2780 [1] lay within 10 to 20%. In addition, the GI50 with A2780 [2] was found to be 10.2 µM; in the assay listed under Homo sapiens, 3360 nM.

As for `C/C=C/C[C@H](C)[C@@H](OC)[C@@H](C)[C@H](O)C[C@H]1OC(=O)C=C[C@H]1CC`, the Activity in the assay with A2780 [1] is 10 to 20%. In addition, the GI50 amounted to 0.0243 µM in the assay with A2780 [2] and 14.4 nM in the assay filed under Homo sapiens.

For `C/C=C/C[C@H](C)[C@@H](OC)[C@@H](C)[C@H](O)C[C@H]1OC(=O)C(F)=C[C@H]1CC`, the Activity with A2780 [1] lay within 10 to 20%. In addition, the GI50 with A2780 [2] came out at 5.11 µM; in the assay filed under Homo sapiens it was 3240 nM.

For `CC(=O)O[C@H]1C(=O)[C@@]2(C)[C@H]([C@H](OC(=O)c3ccccc3)[C@]3(O)C[C@H](OC(=O)[C@H](O)[C@@H](NC(=O)c4ccccc4)c4ccccc4)C(C)=C1C3(C)C)[C@]1(OC(C)=O)CO[C@@H]1C[C@@H]2O`, the Activity with A2780 [1] is 10 to 20%. Besides, the GI50 with A2780 [2] came to 0.00753 µM; in the assay filed under Homo sapiens it was 21 nM.
